Reference: ChEMBL document CHEMBL1121730, “beta-Adrenergic blocking agents. alpha- and gamma-methyl(aryloxy)propanolamines” (J Med Chem, 1981)

Target: Adrenergic receptor beta (Rattus norvegicus, UniProt P18090+P10608+P26255)
Assay: Binding affinity against Beta adrenergic receptor in C6-2B astrocytoma cells, using [125I]-iodohydroxybenzylpindolol-benzylpindolol([125I]-HYP)
Type: cell-based

Kd | SMILES
15 nM | C=CCc1ccccc1OC(C)C(O)CNC(C)(C)C (stereo not given)
500 nM | CC(C)NCC(O)C(C)Oc1ccc(Cl)c(Cl)c1 (stereo not given)
200 nM | Cc1ccc(OC(C)C(O)CNC(C)C)cc1C (stereo not given)
2000 nM | CCc1ccc(OC(C)C(O)CNC(C)(C)C)cc1 (stereo not given)
200 nM | Cc1ccc(OC(C)C(O)CNC(C)(C)C)cc1C (stereo not given)
2000 nM | CCc1ccc(OC(C)C(O)CNC(C)C)cc1 (stereo not given)
5 nM | CC(Oc1cccc2ccccc12)C(O)CNC(C)(C)C (stereo not given)
300 nM | CC(Oc1ccccc1)C(O)CNC(C)(C)C (stereo not given)
40 nM | CC(C)NCC(O)C(C)Oc1cccc2ccccc12 (stereo not given)
50 nM | C=CCc1ccccc1OC(C)C(O)CNC(C)C (stereo not given)
